One data set concerns tumor. As to conditions: preclinical studies in mice; cited from earlier work.
Data set [1] deals with T1, ENL YEATS domain (6×HIS ENL YEATS Domain) binding to H3K9cr peptide (Homo sapiens, UniProt Q03111).
T1 construct: aa1-150; EpiCypher, 15-0069; purchased EpiCypher 15-0069
T1 sequence (Q03111 1-150): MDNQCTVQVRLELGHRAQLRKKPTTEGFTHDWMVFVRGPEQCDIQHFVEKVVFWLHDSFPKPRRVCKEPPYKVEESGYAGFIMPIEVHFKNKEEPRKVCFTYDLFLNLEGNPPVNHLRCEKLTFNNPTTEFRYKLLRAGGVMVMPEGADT
Kind of data set: TR-FRET ENL Screening Assay, FRET Assay Protocol 1. As to conditions: H3K9cr peptide (aa1-20). The procedure:
Compounds of the invention were dissolved in DMSO at a concentration of 3 mM with subsequent dilutions in assay buffer (50 mM HEPES PH7.0, 150 mM NaCl, 0.05% BSA, 0.2% Pluronic F-127) such that the assay contained 1% DMSO. […] Low control (LC) wells received 5 uL of assay buffer instead of ENL protein. […] Compound concentration response curves were performed in duplicate over the concentration range of 0.15 nM-30 uM. The response at each compound concentration minus the LC value was converted to percent inhibition of the vehicle control group response (HC-LC). The relationship between the % inhibition and the compound concentration was analyzed using a four parameter logistic equation to estimate lower and upper asymptotes, the compound concentration producing 50% inhibition (IC50 value) and the slope at the mid-point location.

The subject of a further data set is MV4-11 cells. As to the kind of experiment: Cell viability assay (CellTiter-Glo), 12 days. In kind it is cell-based. To be noted: Homo sapiens, readouts on days 4, 8 and 12, day not given. As to the method: Cell-based assays were used to assess the ability of test compounds to reduce cell viability in both MV4:11 (MLL-AF4 MLL) and K562 cells, which were cultured in Iscove's Modified Dulbecco's medium (Gibco, 12440061) containing […]. The assays were conducted over 12 days and the cells being split on days 4 and 8. Compound concentration response curves were performed in duplicate over the concentration range of 0.15 nM-30 uM. On day 0, the compounds or vehicle were plated in a 300 nL directly into 96 well cell culture plates (Corning, 3599) with 5000 cells/well in a volume of 100 uL. Blank wells received cell culture medium. Plates were incubated for 4 days at 37° C. with 5% CO2. On days 4 and day 8 the cells were split and incubated for a further 4 days whilst an aliquot of cells were taken for the CTG readout. For the cell splitting, 270 nL of compounds or DMSO was added to a new 96 well cell culture plate to which 90 uL of medium plus 10 uL of cells from the original assay plate (after mixing) or 100 uL of medium (Blank wells) was added. This was repeated on day 8.
Cell viability was assessed using the CellTiter-Glo® homogeneous luminescent assay kit (Promega, G9243), according to the manufacturer's instructions. This quantifies ATP, which indicates the presence of metabolically active cells. On days 4, 8 and 12, 20 ul of the remaining cell suspension was aspirated into 384-well plate (Corning 3570) to which an equal volume CellTiter-Glo reagent was. Plates were incubated for 10 minute incubation at RT prior to recording the luminescence signal using EnVision plate reader (PE, 2104). The resulting data were analyzed as follows:
Inhibition (%)=100%×(Lumvehicie−Lumsample)/(Lumvehicle−Lumblank)
where vehicle are cells treated with 0.3% DMSO, Blank is culture medium. IC50 determinations were calculated by fitting the curve using XLfit (v5.3.1.3): Y=Bottom+(Top−Bottom)/(1+10^((Log IC50−X)*HillSlope)).

Data set [2] deals with myeloma tumors; leukemic engraftment of patient-derived primary samples. As to conditions: mice, cited from earlier work.
Data set [3] deals with BET family of bromodomain proteins. As to conditions: cited from earlier work.
The next data set concerns acute myeloid leukemia. As to conditions: cited from earlier work.

As for `CCn1nc(C2CC2)cc1Nc1nc(C(=O)NCCCOCCOCCOCCCNc2cccc3c2C(=O)N(C2CCC(=O)NC2=O)C3=O)nc2[nH]c3cc(-c4c(C)noc4C)c(OC)cc3c12` (stereo not shown) [BET-d246], the anti-tumor activity entry with tumor is given as “strong anti-tumor activity”.
Turning to `Cc1n[nH]c2cc(C(=O)Nc3cc4[nH]c(CN5CCC[C@@H]5C)cc4cn3)ccc12` [Example 67], the values for the IC50 (in data set [1]; in the data set with MV4-11 cells) were 125 nM and 0.149 µM, respectively.
The like results for `C[C@H]1CCN1Cc1cc2cnc(NC(=O)c3ccc4[nH]nc(C5CC5)c4c3)cc2[nH]1` [Example 73, 3-cyclopropyl-N-(2-[[(2S)-2-methylazetidin-1-yl]methyl]-1H-pyrrolo[3,2-c]pyridin-6-yl)-1H-indazole-5-carboxamide] were, in that order, 238 nM and 0.684 µM.
`C[C@H]1CCCN1Cc1cc2cnc(NC(=O)c3ccc4c(N)nccc4c3)cc2[nH]1` [Example 82]: the IC50 in data set [1] is 33 nM; with MV4-11 cells, 0.454 µM.
The like results for `CNc1nn(C)c2cc(C(=O)Nc3cc4[nH]c(CN5CCC[C@@H]5C)cc4cn3)ccc12` [Example 85] were, in that order, 176 nM and 0.183 µM.
Taken in the same sequence, the figures for `C[C@H]1CCCN1Cc1cc2cnc(NC(=O)c3ccc4c(N(C)C)nn(C)c4c3)cc2[nH]1` [Example 86] were 209 nM and 0.482 µM.
The like results for `COc1cc2ccc(C(=O)Nc3cc4[nH]c(CN5CCC[C@@H]5C)cc4cn3)cc2cn1` [Example 88] were, in that order, 141 nM and 0.623 µM.
Consider `C[C@H]1CCCN1Cc1cc2cnc(NC(=O)c3ccc4c(c3)c(N)nn4C)cc2[nH]1` [Example 92], for which the IC50 amounted to 210 nM in data set [1] and 0.134 µM with MV4-11 cells.
The like results for `C[C@H]1CCCN1Cc1cc2cnc(NC(=O)c3ccc4c(c3)[nH]c(=O)n4C)cc2[nH]1` [Example 93] were, in that order, 97 nM and 0.181 µM.
With `COCCNc1nn(C)c2cc(C(=O)Nc3cc4[nH]c(CN5CCC[C@@H]5C)cc4cn3)ccc12` [Example 94, 3-[(2-methoxyethyl)amino]-1-methyl-N-(2-[[(2S)-2-methylpyrrolidin-1-yl]methyl]-1H-pyrrolo[3,2-c]pyridin-6-yl)indazole-6-carboxamide], the IC50 in data set [1] was found to be 118 nM; in the data set on MV4-11 cells it was 0.365 µM.
Take `C[C@H]1CCCN1Cc1cc2cnc(NC(=O)c3ccc4c(NCC(F)F)nn(C)c4c3)cc2[nH]1` [Example 95, 3-[(2,2-difluoroethyl)amino]-1-methyl-N-(2-[[(2S)-2-methylpyrrolidin-1-yl]methyl]-1H-pyrrolo[3,2-c]pyridin-6-yl)indazole-6-carboxamide]: the values for the IC50 (in data set [1]; with MV4-11 cells) were 160 nM and 0.704 µM, respectively.
Regarding `CNc1cc2ccc(C(=O)Nc3cc4[nH]c(CN5CCC[C@@H]5C)cc4cn3)cc2cn1` [Example 97], the values for the IC50 (in data set [1]; in the data set with MV4-11 cells) were 572 nM and 0.321 µM, respectively.
The like results for `C[C@H]1CCCN1Cc1cc2cnc(NC(=O)c3ccc4c(c3)CNC(=O)N4C)cc2[nH]1` [Example 98] were, in that order, 330 nM and 1.06 µM.
The like results for `Cc1ncc2cc(C(=O)Nc3cc4[nH]c(CN5CCC[C@@H]5C)cc4cn3)ccn12` [Example 99, 3-methyl-N-(2-[[(2S)-2-methylpyrrolidin-1-yl]methyl]-1H-pyrrolo[3,2-c]pyridin-6-yl)imidazo[1,5-a]pyridine-7-carboxamide] were, in that order, 186 nM and 0.468 µM.
Taken in the same sequence, the figures for `Cn1ncc2ccc(C(=O)Nc3cc4[nH]c(CN5CC6(CCOCC6)C5)cc4cn3)cc21` [Example 104] were 210 nM and 0.22 µM.
With `COc1cc2c(cc1-c1c(C)noc1C)ncc1[nH]c(=O)n([C@H](C)c3ccccn3)c12` [I-BET 151], in data set [2] (in vivo, patient-derived primary samples), the “leukemic engraftment and disease burden” value was “impairs the leukemic engraftment of patient-derived primary samples and lowers the disease burden”. In addition, in data set [2], the “effect on myeloma tumors” value is reported as “reduced myeloma tumors”.
In the case of `Cc1sc2c(c1C)C(c1ccc(Cl)cc1)=N[C@@H](CC(=O)OC(C)(C)C)c1nnc(C)n1-2` [JQ1], the “inhibition of BET bromodomain proteins” value in data set [3] is recorded as “potent inhibitor”.
In the case of `CCS(=O)(=O)Nc1ccc(Oc2ccc(F)cc2F)c(-c2cn(C)c(=O)c3[nH]ccc23)c1` [Mivebresib], the antileukemic effects result in the data set on acute myeloid leukemia (patients with relapsed and refractory AML) is listed as “showed antileukemic effects”. In addition, in the data set with acute myeloid leukemia (phase 1 study, patients with solid tumors and AML), the tolerability result was “well tolerated”.

The values are drawn from patent US20230027198A1 (The Rockefeller University, priority 2019, published 2023).
